The target of one assay is human FPR1 (Homo sapiens (Human), UniProt P21462). Kind of assay: FPR1 cyclic adenosine monophosphate (cAMP) assay. The format is cell-based. Conditions: CHO cells overexpressing human FPR1; forskolin 10 µM; inhibition of cAMP production; read-out: hFPR1 cAMP EC50. An excerpt: (§1) N-formyl peptide receptors (FPRs) are a family of chemo attractant receptors that facilitate leukocyte response during inflammation. FPRs belong to the seven-transmembrane G protein-coupled receptor superfamily and are linked to inhibitory G-proteins (Gi). Three family members (FPR1, FPR2 and FPR3) have been identified in humans and are predominantly found in myeloid cells with varied distribution and have also been reported in multiple organs and tissues. After agonist binding, the FPRs activate a multitude of physiological pathways, such as intra cellular signaling transduction, Ca^2+ mobilization and transcription. The family interacts with a diverse set of ligands that includes proteins, polypeptides and fatty acid metabolites which activate both pro-inflammatory and pro-resolution downstream responses. FPR2 and FPR1 Cyclic Adenosine Monophosphate (cAMP) Assays were used to measure the activity of the compounds in this patent.
FPR2 and FPR1 Cyclic Adenosine Monophosphate (cAMP) Assays. A mixture of forskolin (5 µM final for FPR2 or 10 µM final for FPR1) and IBMX (200 µM final) were added to 384-well Proxiplates (Perkin-Elmer) pre-dotted with test compounds in DMSO (1% final) at final concentrations in the range of 0.020 nM to 100 µM. Chinese Hamster Ovary cells (CHO) overexpressing human FPR1 or human FPR2 receptors were cultured in F-12 (Ham’s) medium supplemented with 10% qualified FBS, 250 µg/ml zeocin and 300 µg/ml hygromycin (Life Technologies). Reactions were initiated by adding 2,000 human FPR2 cells per well or 4,000 human FPR1 cells per well in Dulbecco’s PBS (with calcium and magnesium) (Life Technologies) supplemented with 0.1% BSA (Perkin-Elmer). The reaction mixtures were incubated for 30 min at room temperature. The level of intracellular cAMP was determined using the HTRF HiRange cAMP assay reagent kit (Cisbio) according to manufacturer’s instruction. Solutions of cryptate conjugated anti-cAMP and d2 flurorophore-labelled cAMP were made in a supplied lysis buffer separately. Upon completion of the reaction, the cells were lysed with equal volume of the d2-cAMP solution and anti-cAMP solution. […] The potency and activity of a compound to inhibit cAMP production was then determined by fitting to a 4-parametric logistic equation from a plot of cAMP level versus compound concentrations.

The target in the next assay is human FPR2 (Homo sapiens (Human), UniProt P25090). In words: FPR2 cyclic adenosine monophosphate (cAMP) assay. The format is cell-based. The settings on record: CHO cells overexpressing human FPR2; forskolin 5 µM; inhibition of cAMP production; read-out: hFPR2 cAMP2 EC50.
Excerpt: as §1
FPR2 and FPR1 Cyclic Adenosine Monophosphate (cAMP) Assays. A mixture of forskolin (5 µM final for FPR2 or 10 µM final for FPR1) and IBMX (200 µM final) were added to 384-well Proxiplates (Perkin-Elmer) pre-dotted with test compounds in DMSO (1% final) at final concentrations in the range of 0.020 nM to 100 µM. Chinese Hamster Ovary cells (CHO) overexpressing human FPR1 or human FPR2 receptors were cultured in F-12 (Ham’s) medium supplemented with 10% qualified FBS, 250 µg/ml zeocin and 300 µg/ml hygromycin (Life Technologies). Reactions were initiated by adding 2,000 human FPR2 cells per well or 4,000 human FPR1 cells per well in Dulbecco’s PBS (with calcium and magnesium) (Life Technologies) supplemented with 0.1% BSA (Perkin-Elmer). The reaction mixtures were incubated for 30 min at room temperature. The level of intracellular cAMP was determined using the HTRF HiRange cAMP assay reagent kit (Cisbio) according to manufacturer’s instruction. Solutions of cryptate conjugated anti-cAMP and d2 flurorophore-labelled cAMP were made in a supplied lysis buffer separately. Upon completion of the reaction, the cells were lysed with equal volume of the d2-cAMP solution and anti-cAMP solution. After a 1-h room temperature incubation, time-resolved fluorescence intensity was measured using the Envision (Perkin-Elmer) at 400 nm excitation and dual emission at 590 nm and 665 nm. A calibration curve was constructed with an external cAMP standard at concentrations ranging from 1 µM to 0.1 pM by plotting the fluorescent intensity ratio from 665 nm emission to the intensity from the 590 nm emission against cAMP concentrations. The potency and activity of a compound to inhibit cAMP production was then determined by fitting to a 4-parametric logistic equation from a plot of cAMP level versus compound concentrations.
In general terms: Cyclic AMP is a second messenger, typically raised through Gs and lowered through Gi signalling.

Chain of human FPR1 (P21462 whole entry): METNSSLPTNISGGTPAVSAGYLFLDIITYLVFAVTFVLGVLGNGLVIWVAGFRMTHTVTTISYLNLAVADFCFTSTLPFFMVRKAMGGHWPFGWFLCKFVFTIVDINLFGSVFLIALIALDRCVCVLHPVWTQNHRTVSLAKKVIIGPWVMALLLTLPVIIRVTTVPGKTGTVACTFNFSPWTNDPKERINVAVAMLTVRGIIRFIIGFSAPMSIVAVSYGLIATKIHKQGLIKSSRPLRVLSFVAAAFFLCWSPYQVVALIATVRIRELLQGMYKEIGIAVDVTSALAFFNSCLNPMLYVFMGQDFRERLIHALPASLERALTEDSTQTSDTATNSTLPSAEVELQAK
Chain of human FPR2 (P25090 whole entry): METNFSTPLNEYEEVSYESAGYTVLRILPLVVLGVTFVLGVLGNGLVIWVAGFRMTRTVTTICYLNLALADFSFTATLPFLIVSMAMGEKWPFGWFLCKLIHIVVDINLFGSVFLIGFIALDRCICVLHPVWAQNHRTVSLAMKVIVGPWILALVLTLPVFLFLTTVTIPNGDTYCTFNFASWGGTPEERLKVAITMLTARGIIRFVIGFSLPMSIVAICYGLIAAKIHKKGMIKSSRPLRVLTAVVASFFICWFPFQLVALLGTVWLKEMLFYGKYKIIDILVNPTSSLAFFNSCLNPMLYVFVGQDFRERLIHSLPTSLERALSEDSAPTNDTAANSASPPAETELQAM

What is called EC50 is the concentration giving half of the maximal effect. Take `COc1cc(F)c([C@@H]2CN(c3cccn(CC(O)C(F)(F)F)c3=O)C(=O)[C@H]2NC(=O)c2ccc(OC(F)F)cc2)c(F)c1` (single isomer, unassigned) [Example 4]: the EC50 at human FPR1 is 290 nM; at human FPR2 it was 1.7 nM.

As to `COc1cc(F)c([C@@H]2CN(c3cccn(CC(O)C(F)(F)F)c3=O)C(=O)[C@H]2NC(=O)c2ccc(OC(F)F)cc2)c(F)c1` (single isomer, unassigned) [Example 5], the figures for the EC50 on human FPR1 and at human FPR2 were 14 nM and 2.9 nM, respectively.

`COc1cc(F)c([C@@H]2CN(c3cccnc3C#N)C(=O)[C@H]2NC(=O)c2ccc(OC(F)F)cc2)c(F)c1` [Example 1, N-((3S,4R)-1-(2-cyanopyridin-3-yl)-4-(2,6-difluoro-4-methoxyphenyl)-2-oxopyrrolidin-3-yl)-4-(difluoromethoxy)benzamide]: the EC50 on human FPR1 amounted to 4200 nM; on human FPR2, 28 nM.

As for `COc1cc(F)c([C@@H]2CN(CC3CC3)C(=O)[C@H]2NC(=O)c2ccc(OC(F)F)cc2)c(F)c1` [Example 3, N-((3S,4R)-1-(cyclopropylmethyl)-4-(2,6-difluoro-4-methoxyphenyl)-2-oxopyrrolidin-3-yl)-4-(difluoromethoxy)benzamide], the EC50 at human FPR1 is 1700 nM; at human FPR2 it was 29 nM.

As to `COc1cc(F)c([C@@H]2CN(c3nc(Cl)ccc3C#N)C(=O)[C@H]2NC(=O)c2ccc(OC(F)F)cc2)c(F)c1` [Example 6], the values for the EC50 on human FPR1 and on human FPR2 were 650 nM and 5.1 nM, respectively.

`COc1cc(F)c([C@@H]2CN(c3ncccc3C(F)(F)F)C(=O)[C@H]2NC(=O)c2ccc(OC(F)F)cc2)c(F)c1` [Example 7]: the 50% effective concentration (EC50) was 1300 nM on human FPR1 and 10 nM at human FPR2.

As to `COc1cc(F)c([C@@H]2CN(c3cc(OC)ccc3F)C(=O)[C@H]2NC(=O)c2ccc(OC(F)(F)F)cc2)c(F)c1` [Example 8], the EC50 on human FPR1 turned out to be 280 nM; at human FPR2 it was 15 nM.

Take `COc1cc(F)c([C@@H]2CN(c3cccc(=O)n3C)C(=O)[C@H]2NC(=O)c2ccc(OC(F)F)cc2)c(F)c1` [Example 10]: the EC50 was determined as 290 nM on human FPR1 and 50 nM at human FPR2.

Take `COc1cc(F)c([C@@H]2CN(c3cccc(=O)n3C)C(=O)[C@H]2NC(=O)c2ccc(OC(F)(F)F)cc2)c(F)c1` [Example 11]: the EC50 at human FPR1 came to 86 nM; at human FPR2 it was 31 nM.

Regarding `COc1cc(F)c([C@@H]2CN(c3cc(Cl)cc(C(F)(F)F)c3)C(=O)[C@H]2NC(=O)c2ccc(OC(F)F)cc2)c(F)c1` [Example 12], the values for the EC50 at human FPR1 and at human FPR2 were above 10000 nM and 91 nM, respectively.

`COc1cc(F)c([C@@H]2CN(c3cc(P(C)(C)=O)ccn3)C(=O)[C@H]2NC(=O)c2ccc(OC(F)(F)F)cc2)c(F)c1` [Example 13]: the values for the EC50 on human FPR1 and at human FPR2 were 85 nM and 45 nM, respectively.

Regarding `COc1cc(F)c([C@@H]2CN(c3cc(F)cc(OC(C)C)c3)C(=O)[C@H]2NC(=O)c2ccc(OC(F)(F)F)cc2)c(F)c1` [Example 14], the EC50 at human FPR1 was found to be 43 nM; on human FPR2, 37 nM.

On to `COc1cc(F)c([C@@H]2CN(c3c(C)ccn(CC(C)O)c3=O)C(=O)[C@H]2NC(=O)c2ccc(OC(F)(F)F)cc2)c(F)c1` (some centres unmarked) [Example 400], for which, at human FPR2, the EC50 turned out to be 2.9 nM.

On to `COCC(CO)n1ccc(C)c(N2C[C@@H](c3c(F)cc(OC)cc3F)[C@H](NC(=O)c3ccc(OC(F)(F)F)cc3)C2=O)c1=O` (some centres unmarked) [Example 429], for which, on human FPR2, the EC50 is 1.5 nM.

With `COc1ccc([C@@H]2CN(c3ccnn(CCC(F)(F)F)c3=O)C(=O)[C@H]2NC(=O)c2ccc(Cl)cc2)cc1` [Example 671], the EC50 at human FPR2 worked out at 5.8 nM.

For the compound `COc1cc(F)c([C@@H]2CN(c3c(C)ccn(CC(O)C4CC4)c3=O)C(=O)[C@H]2NC(=O)c2ccc(OC(F)(F)F)cc2)c(F)c1` (some centres unmarked) [Example 683], the EC50 at human FPR2 was determined as 13 nM.

On to `COc1cc(F)c([C@@H]2CN(c3c(C)ccn(CC(O)C4CC4)c3=O)C(=O)[C@H]2NC(=O)c2ccc(OC(F)(F)F)cc2)c(F)c1` (some centres unmarked) [Example 686], for which the EC50 at human FPR1 came to 0.7 nM.

These data come from patent US20230348426A1, “OXOPYRROLIDINE FPR2 AGONISTS” (Bristol-Myers Squibb Company, priority 2020, published 2023).
